Source: ChEMBL document CHEMBL2375310, “Analysis of the antioxidant properties of differently substituted 2- and 3-indolyl carbohydrazides and related derivatives” (Eur J Med Chem, 2013)
The source made the active and inactive calls. The calls are words filed in the database; no cut-off is given here.

Assays:
[1] = tested on: Radical scavenging activity; assay: Antioxidant activity assessed as DPPH free radical scavenging activity at 50 uM after 20 to 60 mins by spectrophotometry; format: functional
Glycine max = assay: Inhibition of soybean lipoxygenase at 100 uM
[2] = Antioxidant activity assessed as Fe3+/ascorbic acid-induced hydroxyl radical scavenging activity at 100 uM after 30 mins; format: functional
[3] = Antioxidant activity assessed as xanthine-xanthine oxidase-induced superoxide anion radical scavenging activity at 0.1 mM after 10 mins by spectrophotometry; format: functional
[4] = Antioxidant activity against AAPH-induced lipid peroxidation at 100 uM by UV spectrophotometry; format: functional
[5] = tested on: Radical scavenging activity; assay: Antioxidant activity assessed as DPPH free radical scavenging activity at 100 uM after 20 mins by spectrophotometry; format: functional
[6] = tested on: Radical scavenging activity; assay: Antioxidant activity assessed as DPPH free radical scavenging activity at 100 uM after 60 mins by spectrophotometry; format: functional
[7] = tested on: Radical scavenging activity; assay: Antioxidant activity assessed as DPPH free radical scavenging activity at 100 uM by spectrophotometry; format: functional
Rattus norvegicus = assay: Antiinflammatory activity in Fisher 344 rat assessed as reduction of carrageenan-induced paw oedema at 0.01 mmol/kg, ip after 3.5 hrs; format: functional; design: scale not given: the % may be the effect or the level left
[8] = Inhibition of soybean lipoxygenase; design: species or system Glycine max

Row | inhibition (Glycine max) | IC50 [8] [µM] | SMILES | Activity [1] | Activity [2] | Activity [3] | Activity [4] | Activity [5] | Activity [6] [%] | Activity [7] | Activity (Rattus norvegicus) [%]
1 | 31% | – | C/C(CC(C)C)=N\NC(=O)c1cc2ccccc2[nH]1 | inactive | 74% | inactive | 68% | 10% | 36 | Active | –
2 | 33% | – | O=C(NNCCCc1ccccc1)c1cc2ccccc2[nH]1 | inactive | inactive | inactive | 64% | 53% | 8.5 | Active | –
3 | 19% | – | CCC(CC)NNC(=O)c1cc2ccccc2[nH]1 | inactive | 61% | inactive | 30% | 11% | 16 | Active | –
4 | – | 62.5 | CCCCNNC(=O)c1cc2ccccc2[nH]1 | inactive | 90% | 33% | 78% | 79% | 8 | Active | 57
5 | 37% | – | O=C(NN=C1CCCC1)c1cc2ccccc2[nH]1 | inactive | 17% | inactive | 65% | inactive | 38 | Active | –

The next lines start with the molecule.

Row | SMILES | inhibition (Glycine max) | IC50 [8] [µM] | Activity [1] | Activity [2] | Activity [3] | Activity [4] | Activity [5] | Activity [6] [%] | Activity [7] | Activity (Rattus norvegicus) [%]
6 | NNC(=O)CCc1c[nH]c2ccccc12 | inactive | – | inactive | inactive | 67% | inactive | 12.5% | 56 | – | –
7 | CC(C)=NNC(=O)c1cc2ccccc2n1C | – | 62.5 | inactive | 18% | 100% | 87% | inactive | 91 | – | 40
8 | Cc1c(C)c2c(c(C)c1O)CCC(C)(C(=O)O)O2 (centres undefined) | – | – | – | 73% | – | 63% | – | – | – | –
9 | NNCCCc1c[nH]c2ccccc12 | inactive | – | inactive | 34% | inactive | 25% | 85% | 99 | – | –
10 | CC(Cc1ccc(O)c(O)c1)C(C)Cc1ccc(O)c(O)c1 (centres undefined) | – | – | – | – | – | – | 81% | 83 | – | –
11 | COc1ccc2c(c1)c(CC(=O)O)c(C)n2C(=O)c1ccc(Cl)cc1 [INDOMETHACIN] | – | – | – | – | – | – | – | – | – | 47
12 | O=C(O)/C=C/c1ccc(O)c(O)c1 | – | – | – | – | 15% | – | – | – | – | –
13 | Cc1ccc(CNNC(=O)c2cc3ccccc3n2C)cc1 | – | 78 | inactive | inactive | 67% | 85% | 66% | 61 | Active | –
14 | C/C(Cc1ccccc1)=N/NC(=O)c1c[nH]c2ccc(O)cc12 | 52% | – | inactive | 2% | inactive | 50% | 65% | 80 | – | –
